Read-outs that look alike come from different tables or passages of the source.
How the values were obtained:
[1] = design: method as in Villablanca et al, 1995; conditions: high-dose pulse therapy after autologous bone marrow transplantation or non-myeloablative therapy; ref Villablanca et al, 1995; cited from earlier work
[2] = Pharmacokinetic analysis of RA in an SH-SY5Y xenograft model (retinoid concentrations in plasma, liver, tumour by LC/MS); type: in vivo, CD-1 nude mice; conditions: for % Total retinoids, tumour, 0.5 h / % Total retinoids, tumour, 2 h / % Total retinoids, tumour, 6 h / % Total retinoids, liver, 0.5 h / % Total retinoids, liver, 2 h / % Total retinoids, liver, 6 h / % Total retinoids, plasma, 0.5 h / % Total retinoids, plasma, 2 h / % Total retinoids, plasma, 6 h / concentration at 0.5 h / concentration at 2 h / concentration at 6 h: label = retinoid measured; for concentration at 0.5 h / concentration at 2 h / concentration at 6 h: po
Protocol: All in vivo experiments were approved by the relevant institutional animal welfare committees, and performed according to national law. Female athymic nude mice (CD-1 nu/nu, Charles River) used for antitumour studies were maintained and handled in isolators, under specific pathogen-free conditions, at 24°C with a 12 h light, 12 h dark cycle. Tumours were generated by implantation of SH-SY5Y cells subcutaneously (s.c.) into one flank of CD-1 nude mice (1 × 10^7 cells per animal).
Treatments began when the tumours were between 7 and 10 mm in length and breadth. Retinoids and R116010 were initially dissolved in DMSO before 10- or 20-fold dilutions in PBS, respectively. For pharmacokinetic studies, the animals were dosed with ATRA or 13cisRA (each 100 mg kg^−1) orally for 0.5, 2 and 6 h. For metabolism studies, animals were treated with R116010 orally at doses of 1.25 or 2.5 mg kg^−1 either immediately before the retinoid being studied, or up to three times (over 1–2 days) before dosing with the retinoid. At termination of experiments, animals were bled under terminal anaesthesia then killed by cervical dislocation. Plasma was immediately removed from the blood by centrifugation at 1000 g for 5 min and snap-frozen in liquid nitrogen in amber Eppendorfs. Tumour and liver samples were removed and snap-frozen, wrapped in foil, in liquid nitrogen.
Cell pellets obtained from retinoid incubations were re-suspended in 2 ml cell culture medium and disrupted by passing the samples several times through a syringe and hypodermic needle (25G × 1 inches, 0.5 mm × 25 mm; Terumo, Somerset, NJ, USA). Tumour and liver tissues were re-suspended in PBS and homogenised (T25 homogeniser, IKA Laboratories, Staufen, Germany). Retinoids were extracted as described previously ([Veal et al, 2002]; [Armstrong et al, 2005b]). Samples were reconstituted in 200 μl mobile phase A (n-hexane:dichloromethane:propan-2-ol, 400 : 1 : 0.27) and analysed by normal-phase HPLC as described previously ([Veal et al, 2002]). For LC/MS analysis, samples were reconstituted in 200 μl mobile phase A (50% acetonitrile, 50% (0.2%) acetic acid, v v^−1).
Resolution of retinoids was performed with a Luna C18(2) column (3 μm, 50 mm × 2 mm) using a Perkin Elmer LC (Beaconsfield, UK) system, consisting of a vacuum degasser, two series 200 pumps, a thermostatically controlled series 200 autosampler and a Waters 2487 UV absorbance detector. Retinoic isomers and metabolites were separated by gradient reversed-phase chromatography. An injection volume of 20 μl with a flow rate of 0.2 ml min^−1 was used with mobile phase A (50% acetonitrile, 50% (0.2%) acetic acid, v v^−1) and mobile phase B (acetonitrile, 0.1% acetic acid, v v^−1). Linear gradients were employed between the specified times as follows: 0, 100% A; 5 min, 100% A; 15 min, 100% B; 20 min, 100% B; 23 min, 100% A; 35 min, 100% A. An Applied Biosystems (Warrington, UK) API-2000 LC/MS/MS triple Q (quadrupole) mass spectrometer with electrospray ionisation source, controlled by Analyst software, was operated in single quadrupole negative mode for the detection of compounds.

[3] = after 13cisRA 100 mg kg^−1 oral, SH-SY5Y tumour
[4] = after 13cisRA 100 mg kg^−1 oral, liver
[5] = after 13cisRA 100 mg kg^−1 oral, plasma
[6] = after ATRA 100 mg kg^−1 oral, SH-SY5Y tumour
[7] = after ATRA 100 mg kg^−1 oral, liver
[8] = after ATRA 100 mg kg^−1 oral, plasma

In the case of CC1=C(/C=C/C(C)=C/C=C/C(C)=C\C(=O)O)C(C)(C)CCC1 [13cisRA, 13-cis-retinoic acid], the “Peak drug levels in patients” value [1] is given as > 5 µM, the “% Total retinoids, tumour, 0.5 h” value [2, 3] is given as 90% and the “% Total retinoids, tumour, 2 h” value [2, 3] is given as 81%. The “% Total retinoids, tumour, 6 h” value [2, 3] was 49%, the “% Total retinoids, liver, 0.5 h” value [2, 4] was 75% and the “% Total retinoids, liver, 2 h” value [2, 4] was 58%. The “% Total retinoids, liver, 6 h” value [2, 4] was 18%, the “% Total retinoids, plasma, 0.5 h” value [2, 5] was 93% and the “% Total retinoids, plasma, 2 h” value [2, 5] was 93%. The “% Total retinoids, plasma, 6 h” value [2, 5] was 78%, the “Plasma % of total retinoids at all time points” value ([2]; after ATRA 100 mg kg^−1, plasma, 0.5, 2 and 6 h) was < 10% and the “% Total retinoids, tumour, 0.5 h” value [2, 6] was 2%. For the same molecule, the “% Total retinoids, tumour, 2 h” value [2, 6] was 3%, the “% Total retinoids, tumour, 6 h” value [2, 6] was 3% and the “% Total retinoids, liver, 0.5 h” value [2, 7] was 11%. For the same molecule, the “% Total retinoids, liver, 2 h” value [2, 7] was 5%, the “% Total retinoids, liver, 6 h” value [2, 7] was 5% and the “% Total retinoids, plasma, 0.5 h” value [2, 8] was 5%. The “% Total retinoids, plasma, 2 h” value [2, 8] was 6%, the “% Total retinoids, plasma, 6 h” value [2, 8] was 8% and the concentration at 0.5 h ([2]; female, CD-1 nu/nu (athymic nude), mouse, liver, 100 mg kg^−1, after 13cisRA 100 mg kg^−1 oral, liver, read-out: Liver concentration, 0.5 h) was 3770 ± 1050 ng/g. For the same molecule, the concentration at 2 h ([2]; female, CD-1 nu/nu (athymic nude), mouse, liver, 100 mg kg^−1, after 13cisRA 100 mg kg^−1 oral, liver, read-out: Liver concentration, 2 h) was 2330 ± 110 ng/g, the concentration at 6 h ([2]; female, CD-1 nu/nu (athymic nude), mouse, liver, 100 mg kg^−1, after 13cisRA 100 mg kg^−1 oral, liver, read-out: Liver concentration, 6 h) was 980 ± 120 ng/g and the concentration at 0.5 h ([2]; female, CD-1 nu/nu (athymic nude), mouse, liver, 100 mg kg^−1, after ATRA 100 mg kg^−1 oral, liver, read-out: Liver concentration, 0.5 h) was 420 ± 300 ng/g. For the same molecule, the concentration at 2 h ([2]; female, CD-1 nu/nu (athymic nude), mouse, liver, 100 mg kg^−1, after ATRA 100 mg kg^−1 oral, liver, read-out: Liver concentration, 2 h) was 400 ± 80 ng/g, the concentration at 6 h ([2]; female, CD-1 nu/nu (athymic nude), mouse, liver, 100 mg kg^−1, after ATRA 100 mg kg^−1 oral, liver, read-out: Liver concentration, 6 h) was 250 ± 60 ng/g and the concentration at 0.5 h ([2]; female, CD-1 nu/nu (athymic nude), mouse, plasma, 100 mg kg^−1, after 13cisRA 100 mg kg^−1 oral, plasma, read-out: Plasma concentration, 0.5 h) was 14.2 ± 4.71 µM. It also gave a concentration at 2 h ([2]; female, CD-1 nu/nu (athymic nude), mouse, plasma, 100 mg kg^−1, after 13cisRA 100 mg kg^−1 oral, plasma, read-out: Plasma concentration, 2 h) of 19.1 ± 3.26 µM, a concentration at 6 h ([2]; female, CD-1 nu/nu (athymic nude), mouse, plasma, 100 mg kg^−1, after 13cisRA 100 mg kg^−1 oral, plasma, read-out: Plasma concentration, 6 h) of 4.69 ± 0.52 µM and a concentration at 0.5 h ([2]; female, CD-1 nu/nu (athymic nude), mouse, plasma, 100 mg kg^−1, after ATRA 100 mg kg^−1 oral, plasma, read-out: Plasma concentration, 0.5 h) of 0.67 ± 0.55 µM. For the same molecule, the concentration at 2 h ([2]; female, CD-1 nu/nu (athymic nude), mouse, plasma, 100 mg kg^−1, after ATRA 100 mg kg^−1 oral, plasma, read-out: Plasma concentration, 2 h) was 1.55 ± 0.33 µM, the concentration at 6 h ([2]; female, CD-1 nu/nu (athymic nude), mouse, plasma, 100 mg kg^−1, after ATRA 100 mg kg^−1 oral, plasma, read-out: Plasma concentration, 6 h) was 1.53 ± 0.66 µM and the Tmax ([2]; female, CD-1 nu/nu (athymic nude), mouse, plasma, 100 mg kg^−1 oral, sampled at 0.5, 2, 6 h, read-out: Time of peak plasma levels) was 2 h. It also gave a concentration at 0.5 h ([2]; female, CD-1 nu/nu (athymic nude), mouse, tumour (SH-SY5Y xenograft), 100 mg kg^−1, after 13cisRA 100 mg kg^−1 oral, SH-SY5Y tumour, read-out: Tumour concentration, 0.5 h) of 2000 ± 670 ng/g, a concentration at 2 h ([2]; female, CD-1 nu/nu (athymic nude), mouse, tumour (SH-SY5Y xenograft), 100 mg kg^−1, after 13cisRA 100 mg kg^−1 oral, SH-SY5Y tumour, read-out: Tumour concentration, 2 h) of 2120 ± 570 ng/g and a concentration at 6 h ([2]; female, CD-1 nu/nu (athymic nude), mouse, tumour (SH-SY5Y xenograft), 100 mg kg^−1, after 13cisRA 100 mg kg^−1 oral, SH-SY5Y tumour, read-out: Tumour concentration, 6 h) of 280 ± 40 ng/g. The concentration at 0.5 h ([2]; female, CD-1 nu/nu (athymic nude), mouse, tumour (SH-SY5Y xenograft), 100 mg kg^−1, after ATRA 100 mg kg^−1 oral, SH-SY5Y tumour, read-out: Tumour concentration, 0.5 h) was 70 ± 70 ng/g, the concentration at 2 h ([2]; female, CD-1 nu/nu (athymic nude), mouse, tumour (SH-SY5Y xenograft), 100 mg kg^−1, after ATRA 100 mg kg^−1 oral, SH-SY5Y tumour, read-out: Tumour concentration, 2 h) was 280 ± 70 ng/g and the concentration at 6 h ([2]; female, CD-1 nu/nu (athymic nude), mouse, tumour (SH-SY5Y xenograft), 100 mg kg^−1, after ATRA 100 mg kg^−1 oral, SH-SY5Y tumour, read-out: Tumour concentration, 6 h) was 150 ± 30 ng/g.

Source: PMC2359919, “Molecular targeting of retinoic acid metabolism in neuroblastoma: the role of the CYP26 inhibitor R116010 in vitro and in vivo” (British Journal of Cancer, 2007)
